System: mature 3CL protease
Format: biochemical, SARS coronavirus

In the case of “H-Thr-Ser-Ala-Val-Leu-Gln-Ser-Gly-Phe-Arg-Lys-NH2 [SO1]”, the “disappearance of SO1” value is reported as “completely disappeared within 1 h”.

Reference: publication PMC7126698 (Bioorganic & Medicinal Chemistry, 2008)
